Test results reported in ChEMBL document CHEMBL1201862, “PubChem BioAssay data set” (2004).
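Briefly, cells in 96-well plates were exposed to five compound concentrations for 48 h, and endpoints were estimated by linear interpolation. At the GI50, growth is halved.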 Active and inactive are the calls of the source. Rule as the data show it: active = GI50 up to about 1.1 µM and inactive = higher.

Assays:
Experiment in all cases: NCI-60 cell line screen, 48 h
ACHN = tested on: ACHN
NCI-H226 = tested on: NCI-H226
Malme-3M = tested on: Malme-3M
UO-31 = tested on: UO-31
SK-MEL-28 = tested on: SK-MEL-28
COLO 205 = tested on: COLO 205
NCI-H23 = tested on: NCI-H23
A498 = tested on: A498
PC-3 = tested on: PC-3
HCT-116 = tested on: HCT-116
NCI-H460 = tested on: NCI-H460
786-0 = tested on: 786-0
SN12C = tested on: SN12C
SNB-19 = tested on: SNB-19
NCI/ADR-RES = tested on: NCI/ADR-RES
UACC-62 = tested on: UACC-62
HL-60 = tested on: HL-60
SK-MEL-2 = tested on: SK-MEL-2
DU-145 = tested on: DU-145
MOLT-4 = tested on: MOLT-4

Row | Structure (SMILES) | GI50 (ACHN) | GI50 (NCI-H226) | GI50 (Malme-3M) | GI50 (UO-31) | GI50 (SK-MEL-28) | GI50 (COLO 205) | GI50 (NCI-H23) | GI50 (A498) | GI50 (PC-3) | GI50 (HCT-116) | GI50 (NCI-H460) | GI50 (786-0) | GI50 (SN12C) | GI50 (SNB-19) | GI50 (NCI/ADR-RES) | GI50 (UACC-62) | GI50 (HL-60) | GI50 (SK-MEL-2) | GI50 (DU-145) | GI50 (MOLT-4)
1 | Cc1noc(/N=C2\C=C(O)C(=O)c3ccccc32)c1C | 13 µM (inactive) | 23.8 µM (inactive) | 2.55 µM (inactive) | 3.18 µM (inactive) | 58.1 µM (inactive) | 31.5 µM (inactive) | 3.47 µM (inactive) | 29.2 µM (inactive) | 16.4 µM (inactive) | 1.69 µM (inactive) | 2.36 µM (inactive) | 21.2 µM (inactive) | 0.918 µM (active) | 3.91 µM (inactive) | 0.505 µM (active) | 2.14 µM (inactive) | 0.516 µM (active) | 0.251 µM (active) | 11.4 µM (inactive) | 18.7 µM (inactive)
2 | C1=Cc2cccc3occ(c23)C=C1 | 58.1 µM (inactive) | 24.1 µM (inactive) | > 100 µM (inactive) | 41.8 µM (inactive) | 47.2 µM (inactive) | 29 µM (inactive) | 84.5 µM (inactive) | > 100 µM (inactive) | 66.4 µM (inactive) | 46.3 µM (inactive) | 41.3 µM (inactive) | 58.3 µM (inactive) | > 100 µM (inactive) | 95.1 µM (inactive) | > 100 µM (inactive) | 39.3 µM (inactive) | 20.4 µM (inactive) | > 100 µM (inactive) | > 100 µM (inactive) | 25.6 µM (inactive)
3 | CCOC(=O)n1c2ccccc2c2c(O)c(OC)c3c(c21)C(=O)NC3=O | 19.8 µM (inactive) | 7.59 µM (inactive) | 35.9 µM (inactive) | 33.1 µM (inactive) | > 100 µM (inactive) | 21.4 µM (inactive) | 52.5 µM (inactive) | 78.7 µM (inactive) | 45.8 µM (inactive) | 20.1 µM (inactive) | 13.9 µM (inactive) | 19.5 µM (inactive) | 83.6 µM (inactive) | 84.5 µM (inactive) | 28.6 µM (inactive) | 37.7 µM (inactive) | 20.7 µM (inactive) | > 100 µM (inactive) | 30 µM (inactive) | 19.5 µM (inactive)
4 | NS(=O)(=O)c1ccc(NC2(C(=O)O)CCCC2)cc1 | > 100 µM (inactive) | > 100 µM (inactive) | > 100 µM (inactive) | > 100 µM (inactive) | > 100 µM (inactive) | > 100 µM (inactive) | > 100 µM (inactive) | > 100 µM (inactive) | > 100 µM (inactive) | > 100 µM (inactive) | > 100 µM (inactive) | > 100 µM (inactive) | > 100 µM (inactive) | > 100 µM (inactive) | > 100 µM (inactive) | > 100 µM (inactive) | > 100 µM (inactive) | > 100 µM (inactive) | > 100 µM (inactive) | > 100 µM (inactive)
5 | COc1cc(/C=C2\C[C@H]3[C@@H]4CC=C5C[C@@H](O)CC[C@]5(C)[C@H]4CC[C@]3(C)[C@H]2O)cc(OC)c1OC | 6.27 µM (inactive) | 11 µM (inactive) | 33.1 µM (inactive) | 13 µM (inactive) | 25.2 µM (inactive) | 7.31 µM (inactive) | 10.3 µM (inactive) | 20.9 µM (inactive) | 16.6 µM (inactive) | 8.05 µM (inactive) | 12 µM (inactive) | 10.8 µM (inactive) | 38.3 µM (inactive) | 50.1 µM (inactive) | 12.9 µM (inactive) | 10.3 µM (inactive) | 4.91 µM (inactive) | 12.7 µM (inactive) | 18.3 µM (inactive) | 5.5 µM (inactive)
